Patent US20250313547A1, “CEREBLON LIGANDS AND BIFUNCTIONAL COMPOUNDS COMPRISING THE SAME” (Arvinas Operations, Inc., priority 2017, published 2025)

Test system: androgen receptor (AR)
Assay: AR ELISA assay (androgen receptor degradation)
Format: cell-based
Conditions: LNCaP and/or VCaP cells, 5 hours drug treatment; for AR Dmax: % degraded
Procedure: 5. AR ELISA Assay Protocol
Compounds were evaluated in this assay in LNCaP and/or VCaP cells utilizing similar protocols. The protocols used with VCaP cells are described below. The androgen receptor ELISA assay was performed using PathScan AR Sandwich ELISA (Cell Signaling Catalog #12850) according to the following assay steps:
VCaP cells were seeded at 40,000 cells/well at a volume of 100 µL/well in VCaP assay medium [Phenol red free RPMI (Gibco Cat #11835-030); 5% Charcoal Stripped (Dextran treated) FBS (Omega Scientific, Cat #FB-04); 1% penstrep (Life Technologies, Gibco Cat #: 10378-016)] in Corning 3904 plates. The cells were incubated for a minimum of 3 days. Cells were dosed with PROTACs diluted in 0.01% DMSO and the drug treatment was allowed for 5 hours.
AR ELISA (Cell Signaling) was performed as follows. 1×Cell Signaling Cell lysis buffer was made (Catalogue #9803; comes with the kit). Media from the treated wells is aspirated, and 100 μL 1×cell lysis buffer/well is added. The cells were placed on a shaker for 10 minutes at 4° C. Twenty microliters of lysate was transferred to 100 μl of Diluent in ELISA plate ([…]-0.075 μg/ml). The lysate-diluent mixture was shaken for 30 minutes at 37° C. Allow mouse AR antibody, anti-mouse antibody, TMB, and STOP solution to come to room temperature. The 1×ELISA buffer included in kit was made and loaded in the reservoir. Media from the plates was discarded, the ELISA plate tapped hard on paper towel, and washed 4×200 μl ELISA wash buffer using a plate washer.
One-hundred (100) μL/well of mouse AR detection Ab was added; the plates were covered and shaken at 37° C. for 1 hour; media was discarded from the plates, the plates were tapped on a paper towel, washed 4× with 200 μL ELISA wash buffer with a plate washer.
One-hundred (100) μL/well of anti-mouse—HRP conjugated Ab (comes with the kit) was added; the plates were covered and shaken at 37° C. for 30 minutes; the TMB reagent was allowed to come to room temperature; the media was discard from the plate, the plates were tapped on paper towel, washed 4× with 200 μL of ELISA wash buffer; the plates were tapped the plates on paper towel. One-hundred (100) μL of TMB was added and the plates shaken for 2 minutes—while watching for color development. One-hundred (100) μL Stop solution was added when light blue color developed. Plates were shaken and read at 450 nm.

Row | SMILES | DC50 | AR Dmax
1 | CC1(C)[C@H](NC(=O)c2ccc(N3CCN(CCOc4cccc5c4CN(c4ccc(F)cc4F)C5=O)CC3)nc2)C(C)(C)[C@H]1Oc1ccc(C#N)c(Cl)c1 [PROTAC-39, N-((1r,3r)-3-(3-chloro-4-cyanophenoxy)-2,2,4,4-tetramethylcyclobutyl)-6-(4-(2-((2-(2,4-difluorophenyl)-1-oxoisoindolin-4-yl)oxy)ethyl)piperazin-1-yl)nicotinamide] | ≥ 100 nM | 0C (C <= 50)
2 | CCN(C(=O)c1ccc(OCCCCCN2CCN(c3ccc(C(=O)N[C@H]4C(C)(C)[C@H](Oc5ccc(C#N)c(Cl)c5)C4(C)C)cn3)CC2)cc1)C1CCC(=O)NC1=O (mixture of isomers) [PROTAC-48, rac-N-((1r,3r)-3-(3-chloro-4-cyanophenoxy)-2,2,4,4-tetramethylcyclobutyl)-6-(4-(5-(4-((2,6-dioxopiperidin-3-yl)(ethyl)carbamoyl)phenoxy)pentyl)piperazin-1-yl)nicotinamide] | ≥ 100 nM | C (C <= 50)
3 | CC1(C)[C@H](NC(=O)c2ccc(N3CCN(CCCOc4ccc(C(=O)NC5CCC(=O)NC5=O)nc4)CC3)nc2)C(C)(C)[C@H]1Oc1ccc(C#N)c(Cl)c1 (stereo partly shown) [PROTAC-50, 5-(3-(4-(5-(((1r,3r)-3-(3-chloro-4-cyanophenoxy)-2,2,4,4-tetramethylcyclobutyl)carbamoyl)pyridin-2-yl)piperazin-1-yl)propoxy)-N-(2,6-dioxopiperidin-3-yl)picolinamide] | < 1 nM | B (50 < B <= 75)
4 | CC1(C)[C@H](NC(=O)c2ccc(N3CCN(CCCCCOc4ccc5c(c4)S(=O)(=O)N(C4CCC(=O)NC4=O)C5=O)CC3)nc2)C(C)(C)[C@H]1Oc1ccc(C#N)c(Cl)c1 (stereo partly shown) [PROTAC-33, N-((1r,3r)-3-(3-chloro-4-cyanophenoxy)-2,2,4,4-tetramethylcyclobutyl)-6-(4-(5-((2-(2,6-dioxopiperidin-3-yl)-1,1-dioxido-3-oxo-2,3-dihydrobenzo[d]isothiazol-6-yl)oxy)pentyl)piperazin-1-yl)nicotinamide] | 1 to 10 nM | B (50 < B <= 75)
5 | CC1(C)[C@H](NC(=O)c2ccc(N3CCC(CCN4CCN(c5ccc(C(=O)NC6CCC(=O)NC6=O)nc5)CC4)CC3)nc2)C(C)(C)[C@H]1Oc1ccc(C#N)c(Cl)c1 (mixture of isomers) [PROTAC-52, rac-5-(4-(2-(1-(5-(((1r,3r)-3-(3-chloro-4-cyanophenoxy)-2,2,4,4-tetramethylcyclobutyl)carbamoyl)pyridin-2-yl)piperidin-4-yl)ethyl)piperazin-1-yl)-N-(2,6-dioxopiperidin-3-yl)picolinamide] | < 1 nM | B (50 < B <= 75)
6 | CC1(C)[C@H](NC(=O)c2ccc(N3CCN(CCCCCCOc4cnn(C5CCC(=O)NC5=O)c(=O)c4)CC3)nc2)C(C)(C)[C@H]1Oc1ccc(C#N)c(Cl)c1 (stereo partly shown) [PROTAC-29, N-((1r,3r)-3-(3-chloro-4-cyanophenoxy)-2,2,4,4-tetramethylcyclobutyl)-6-(4-(6-((1-(2,6-dioxopiperidin-3-yl)-6-oxo-1,6-dihydropyridazin-4-yl)oxy)hexyl)piperazin-1-yl)nicotinamide] | < 1 nM | B (50 < B <= 75)

Further lines, with some results ahead:

Row | DC50 | SMILES | AR Dmax
7 | 1 to 10 nM | CC1(C)[C@H](NC(=O)c2ccc(N3CCN(CCCCCOc4ccc5c(-n6ccc(=O)[nH]c6=O)cncc5c4)CC3)nc2)C(C)(C)[C@H]1Oc1ccc(C#N)c(Cl)c1 [PROTAC-79, N-((1r,3r)-3-(3-chloro-4-cyanophenoxy)-2,2,4,4-tetramethylcyclobutyl)-6-(4-(5-((4-(2,4-dioxo-3,4-dihydropyrimidin-1(2H)-yl)isoquinolin-7-yl)oxy)pentyl)piperazin-1-yl)nicotinamide] | C (C <= 50)
8 | ≥ 100 nM | CC1(C)[C@H](NC(=O)c2ccc(CCCCN3CCC4(CC3)CC(=O)N(C3CCC(=O)NC3=O)C4=O)cc2)C(C)(C)[C@H]1Oc1ccc(C#N)c(Cl)c1 (mixture of isomers) [PROTAC-78, rac-N-((1r,3r)-3-(3-chloro-4-cyanophenoxy)-2,2,4,4-tetramethylcyclobutyl)-4-(4-(2-(2,6-dioxopiperidin-3-yl)-1,3-dioxo-2,8-diazaspiro[4.5]decan-8-yl)butyl)benzamide] | C (C <= 50)
9 | 1 to 10 nM | CC1(C)[C@H](NC(=O)c2cnc(N3CCC(CN4CCN(c5ccc(C(=O)NC6CCC(=O)NC6=O)nc5)CC4)CC3)cn2)C(C)(C)[C@H]1Oc1ccc(C#N)c(Cl)c1 (mixture of isomers) [PROTAC-56, rac-N-((1r,3r)-3-(3-chloro-4-cyanophenoxy)-2,2,4,4-tetramethylcyclobutyl)-5-(4-((4-(6-((2,6-dioxopiperidin-3-yl)carbamoyl)pyridin-3-yl)piperazin-1-yl)methyl)piperidin-1-yl)pyrazine-2-carboxamide] | B (50 < B <= 75)
10 | ≥ 100 nM | CC1(C)[C@H](NC(=O)c2ccc(CCCN3CCC4(CC3)CC(=O)N(C3CCC(=O)NC3=O)C4=O)cc2)C(C)(C)[C@H]1Oc1ccc(C#N)c(Cl)c1 (mixture of isomers) [PROTAC-76, rac-N-((1r,3r)-3-(3-chloro-4-cyanophenoxy)-2,2,4,4-tetramethylcyclobutyl)-4-(3-(2-(2,6-dioxopiperidin-3-yl)-1,3-dioxo-2,8-diazaspiro[4.5]decan-8-yl)propyl)benzamide] | C (C <= 50)
11 | < 1 nM | CC1(C)[C@H](NC(=O)c2ccc(N3CCC(CN4CCN(c5cnn(C6CCC(=O)NC6=O)c(=O)c5)CC4)CC3)cc2)C(C)(C)[C@H]1Oc1ccc(C#N)c(Cl)c1 (mixture of isomers) [PROTAC-62, rac-N-((1r,3r)-3-(3-chloro-4-cyanophenoxy)-2,2,4,4-tetramethylcyclobutyl)-4-(4-((4-(1-(2,6-dioxopiperidin-3-yl)-6-oxo-1,6-dihydropyridazin-4-yl)piperazin-1-yl)methyl)piperidin-1-yl)benzamide] | B (50 < B <= 75)
12 | ≥ 100 nM | CC1(C)[C@H](NC(=O)c2ccc(N3CCN(CCCCCOc4ccc5ncc(-n6cc(C#N)c(=O)[nH]c6=O)cc5c4)CC3)nc2)C(C)(C)[C@H]1Oc1ccc(C#N)c(Cl)c1 [PROTAC-80, N-((1r,3r)-3-(3-chloro-4-cyanophenoxy)-2,2,4,4-tetramethylcyclobutyl)-6-(4-(5-((3-(5-cyano-2,4-dioxo-3,4-dihydropyrimidin-1(2H)-yl)quinolin-6-yl)oxy)pentyl)piperazin-1-yl)nicotinamide] | C (C <= 50)
13 | < 1 nM | Cn1c(-c2ccc(OCCCCCN3CCN(c4ccc(C(=O)N[C@H]5C(C)(C)[C@H](Oc6ccc(C#N)c(Cl)c6)C5(C)C)cc4)CC3)cc2)nn(C2CCC(=O)NC2=O)c1=O (mixture of isomers) [PROTAC-69, rac-N-((1r,3r)-3-(3-chloro-4-cyanophenoxy)-2,2,4,4-tetramethylcyclobutyl)-4-(4-(5-(4-(1-(2,6-dioxopiperidin-3-yl)-4-methyl-5-oxo-4,5-dihydro-1H-1,2,4-triazol-3-yl)phenoxy)pentyl)piperazin-1-yl)benzamide] | B (50 < B <= 75)
14 | < 1 nM | CC1(C)[C@H](NC(=O)c2ccc(N3CCC(CN4CCN(c5ccc(C(=O)NC6CCC(=O)NC6=O)nc5)CC4)CC3)cc2)C(C)(C)[C@H]1Oc1ccc(C#N)c(Cl)c1 (mixture of isomers) [PROTAC-55, rac-5-(4-((1-(4-(((1r,3r)-3-(3-chloro-4-cyanophenoxy)-2,2,4,4-tetramethylcyclobutyl)carbamoyl)phenyl)piperidin-4-yl)methyl)piperazin-1-yl)-N-(2,6-dioxopiperidin-3-yl)picolinamide] | B (50 < B <= 75)
